Source: ChEMBL document CHEMBL1201862, “PubChem BioAssay data set” (2004)
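Tested at 5 concentrations; 48 h exposure; 96-well plates; endpoints linearly interpolated, else capped at highest concentration. Here, GI50 denotes the concentration required for 50% inhibition of growth.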 Activity calls are given as the source filed them. Cut-off read from the data, not from the text of the source: active = GI50 up to about 1.1 µM and inactive = higher.

Columns and labels:
Assay in all cases: DTP human tumour cell line panel, 48 h
A498 = tested on: A498
CCRF-CEM = tested on: CCRF-CEM
DMS-114 = tested on: DMS-114
EKVX = tested on: EKVX
HL-60 = tested on: HL-60
IGROV-1 = tested on: IGROV-1
LOX IMVI = tested on: LOX IMVI
NCI-H23 = tested on: NCI-H23
OVCAR-3 = tested on: OVCAR-3
OVCAR-8 = tested on: OVCAR-8
RPMI-8226 = tested on: RPMI-8226
SF-295 = tested on: SF-295
SF-539 = tested on: SF-539
SK-MEL-28 = tested on: SK-MEL-28
UACC-62 = tested on: UACC-62
CAKI-1 = tested on: CAKI-1
Hs-578T = tested on: Hs-578T
MCF7 = tested on: MCF7
MDA-MB-435 = tested on: MDA-MB-435
PC-3 = tested on: PC-3

SMILES	GI50 (A498)	GI50 (CCRF-CEM)	GI50 (DMS-114)	GI50 (EKVX)	GI50 (HL-60)	GI50 (IGROV-1)	GI50 (LOX IMVI)	GI50 (NCI-H23)	GI50 (OVCAR-3)	GI50 (OVCAR-8)	GI50 (RPMI-8226)	GI50 (SF-295)	GI50 (SF-539)	GI50 (SK-MEL-28)	GI50 (UACC-62)	GI50 (CAKI-1)	GI50 (Hs-578T)	GI50 (MCF7)	GI50 (MDA-MB-435)	GI50 (PC-3)
Cc1ccc(C[P+]2(c3ccccc3)CCCCC2)cc1.[O-][Cl+3]([O-])([O-])[O-]	> 100 µM (inactive)	38 µM (inactive)	14.2 µM (inactive)	43.9 µM (inactive)	10.8 µM (inactive)	21.3 µM (inactive)	26.2 µM (inactive)	24.7 µM (inactive)	10 µM (inactive)	20.6 µM (inactive)	7.43 µM (inactive)	44.2 µM (inactive)	25 µM (inactive)	27.7 µM (inactive)	23 µM (inactive)	–	–	–	–	–
NC(=O)C1C(=O)Oc2cccnc21 (stereo not drawn)	–	> 100 µM (inactive)	> 100 µM (inactive)	> 100 µM (inactive)	–	> 100 µM (inactive)	> 100 µM (inactive)	> 100 µM (inactive)	> 100 µM (inactive)	> 100 µM (inactive)	> 100 µM (inactive)	> 100 µM (inactive)	> 100 µM (inactive)	> 100 µM (inactive)	> 100 µM (inactive)	–	–	–	–	–
CC(=O)c1sc(-c2nc(C)c(C(=O)/C=C\c3ccc(/C=C\C(=O)c4sc(-c5nc(C)c(C(C)=O)s5)nc4C)cc3)s2)nc1C	–	80.7 µM (inactive)	> 100 µM (inactive)	> 100 µM (inactive)	> 100 µM (inactive)	> 100 µM (inactive)	> 100 µM (inactive)	> 100 µM (inactive)	> 100 µM (inactive)	> 100 µM (inactive)	50.5 µM (inactive)	> 100 µM (inactive)	> 100 µM (inactive)	> 100 µM (inactive)	85.9 µM (inactive)	> 100 µM (inactive)	–	–	–	–
CN(C)c1nc(N)nc(CCl)n1	27.9 µM (inactive)	17.4 µM (inactive)	–	18.3 µM (inactive)	19.1 µM (inactive)	13.4 µM (inactive)	7.87 µM (inactive)	24.5 µM (inactive)	17.5 µM (inactive)	35.5 µM (inactive)	46 µM (inactive)	30.8 µM (inactive)	26.1 µM (inactive)	50.4 µM (inactive)	18.9 µM (inactive)	5.14 µM (inactive)	25.4 µM (inactive)	40.2 µM (inactive)	37.1 µM (inactive)	74.8 µM (inactive)
CCOC(=O)C1=NN(c2ccc(C)cc2)C2(c3ccccc3)C=C(c3ccccc3)N(C)CCN12 (stereo not drawn)	> 100 µM (inactive)	> 100 µM (inactive)	–	> 100 µM (inactive)	30.7 µM (inactive)	> 100 µM (inactive)	> 100 µM (inactive)	> 100 µM (inactive)	> 100 µM (inactive)	> 100 µM (inactive)	29 µM (inactive)	> 100 µM (inactive)	> 100 µM (inactive)	> 100 µM (inactive)	> 100 µM (inactive)	> 100 µM (inactive)	> 100 µM (inactive)	> 100 µM (inactive)	> 100 µM (inactive)	> 100 µM (inactive)
COc1ccc(Cc2c(=O)[nH]nc3ccccc23)cc1	> 100 µM (inactive)	> 100 µM (inactive)	> 100 µM (inactive)	> 100 µM (inactive)	–	> 100 µM (inactive)	> 100 µM (inactive)	61 µM (inactive)	> 100 µM (inactive)	90.6 µM (inactive)	> 100 µM (inactive)	> 100 µM (inactive)	> 100 µM (inactive)	> 100 µM (inactive)	> 100 µM (inactive)	> 100 µM (inactive)	–	–	–	–
COC(=O)c1cc2c(cc1Cl)Sc1nnc(Nc3ccccc3)n1S2(=O)=O	5.55 µM (inactive)	2.3 µM (inactive)	–	7.1 µM (inactive)	2.77 µM (inactive)	0.351 µM (active)	7.98 µM (inactive)	2.34 µM (inactive)	1.75 µM (inactive)	3.58 µM (inactive)	1.62 µM (inactive)	3.78 µM (inactive)	2.15 µM (inactive)	3.15 µM (inactive)	3.99 µM (inactive)	2.42 µM (inactive)	3.1 µM (inactive)	2.86 µM (inactive)	7.48 µM (inactive)	3.08 µM (inactive)
[O-][n+]1onc2c1/C(=N/O)CCC2	> 100 µM (inactive)	> 100 µM (inactive)	–	> 100 µM (inactive)	> 100 µM (inactive)	> 100 µM (inactive)	> 100 µM (inactive)	> 100 µM (inactive)	> 100 µM (inactive)	> 100 µM (inactive)	> 100 µM (inactive)	> 100 µM (inactive)	> 100 µM (inactive)	> 100 µM (inactive)	> 100 µM (inactive)	> 100 µM (inactive)	> 100 µM (inactive)	> 100 µM (inactive)	> 100 µM (inactive)	> 100 µM (inactive)
Cc1ccc(-c2cc(=O)c3cc(C)c(C)c(C(=O)O)c3o2)cc1[N+](=O)[O-]	–	> 100 µM (inactive)	> 100 µM (inactive)	> 100 µM (inactive)	–	> 100 µM (inactive)	> 100 µM (inactive)	> 100 µM (inactive)	> 100 µM (inactive)	> 100 µM (inactive)	> 100 µM (inactive)	> 100 µM (inactive)	> 100 µM (inactive)	> 100 µM (inactive)	> 100 µM (inactive)	> 100 µM (inactive)	–	–	–	–
CCc1nc(N)nc(N)c1-c1ccc(Cc2ccccc2)c([N+](=O)[O-])c1	3.05 µM (inactive)	< 0.01 µM (active)	–	5.53 µM (inactive)	< 0.01 µM (active)	0.0702 µM (active)	< 0.01 µM (active)	0.0171 µM (active)	0.873 µM (active)	< 0.0153 µM (active)	0.0622 µM (active)	0.0116 µM (active)	0.0475 µM (active)	> 39.5 µM (inactive)	< 0.0111 µM (active)	0.0183 µM (active)	12.3 µM (inactive)	0.0484 µM (active)	< 0.01 µM (active)	< 0.0353 µM (active)
O=C(O)OC12CCCCCC1C(=O)C1CCCCC12 (stereo not drawn)	–	> 100 µM (inactive)	82 µM (inactive)	82.4 µM (inactive)	47 µM (inactive)	–	> 100 µM (inactive)	> 100 µM (inactive)	–	> 100 µM (inactive)	43.1 µM (inactive)	> 100 µM (inactive)	–	> 100 µM (inactive)	71.3 µM (inactive)	–	–	–	–	–
Clc1ccc(CCNC2(c3cc4ccccc4s3)CCCCC2)cc1Cl	19.1 µM (inactive)	12.9 µM (inactive)	–	26.1 µM (inactive)	16.7 µM (inactive)	40.8 µM (inactive)	18.5 µM (inactive)	26.5 µM (inactive)	20.6 µM (inactive)	31.9 µM (inactive)	11.5 µM (inactive)	28.7 µM (inactive)	16.9 µM (inactive)	25.2 µM (inactive)	17.7 µM (inactive)	29.5 µM (inactive)	42.5 µM (inactive)	17 µM (inactive)	41.4 µM (inactive)	43.2 µM (inactive)
CC(=O)C1COC(O)C1C (stereo not drawn)	56.2 µM (inactive)	13.5 µM (inactive)	–	38 µM (inactive)	12.4 µM (inactive)	17.2 µM (inactive)	16.4 µM (inactive)	16.1 µM (inactive)	19 µM (inactive)	19.5 µM (inactive)	19.7 µM (inactive)	26.1 µM (inactive)	17.5 µM (inactive)	19.5 µM (inactive)	14 µM (inactive)	22.8 µM (inactive)	24.1 µM (inactive)	20.7 µM (inactive)	16.1 µM (inactive)	20 µM (inactive)
COc1nc(C#CC2CCCCC2)nc(OC)n1	21.4 µM (inactive)	1.12 µM (inactive)	–	16 µM (inactive)	1.12 µM (inactive)	3.79 µM (inactive)	1.51 µM (inactive)	1.45 µM (inactive)	3.22 µM (inactive)	1.61 µM (inactive)	1.51 µM (inactive)	5.24 µM (inactive)	2.45 µM (inactive)	8.18 µM (inactive)	1.28 µM (inactive)	3.39 µM (inactive)	3.58 µM (inactive)	2.14 µM (inactive)	2.08 µM (inactive)	4.21 µM (inactive)
CCOP(=O)(OCC)C(=C1C=C(C(C)(C)C)C(=O)C(C(C)(C)C)=C1)P(=O)(OCC)OCC	> 10 µM (inactive)	1.14 µM (inactive)	–	> 7.76 µM (inactive)	3.53 µM (inactive)	> 10 µM (inactive)	> 10 µM (inactive)	> 10 µM (inactive)	2.41 µM (inactive)	> 10 µM (inactive)	5.08 µM (inactive)	> 10 µM (inactive)	> 10 µM (inactive)	> 10 µM (inactive)	> 10 µM (inactive)	3.33 µM (inactive)	> 10 µM (inactive)	> 6.84 µM (inactive)	> 5.24 µM (inactive)	> 10 µM (inactive)
Clc1ccccc1/C=c1\nc(-c2ccccc2)n2c1nc1ccccc12	> 100 µM (inactive)	> 100 µM (inactive)	–	13.4 µM (inactive)	> 100 µM (inactive)	27.2 µM (inactive)	> 100 µM (inactive)	17.8 µM (inactive)	> 100 µM (inactive)	31.2 µM (inactive)	84.3 µM (inactive)	10.7 µM (inactive)	20 µM (inactive)	> 100 µM (inactive)	30.8 µM (inactive)	68.7 µM (inactive)	25.8 µM (inactive)	> 100 µM (inactive)	> 100 µM (inactive)	4.66 µM (inactive)
